Here are results for 5 compounds from patent publication US5008265A, “2-amino-7-(alicyclomethyl)-3H,5H,-pyrrolo[3,2-d]pyrimidin-4-ones and pharmaceutical uses and compositions containing the same” (BioCryst, Inc., priority 1989, dated 1991).

pIC50: −log10 of the molar value. Like-named read-outs stand apart in the source and are kept apart here.

Experiment [1] has as its target T1, purine nucleoside phosphorylase (PNP) (Bos taurus, UniProt P55859).
T1 construct: using calf spleen as the enzyme source; from tissue; host or cells: calf spleen
T1 sequence (P55859 1-289): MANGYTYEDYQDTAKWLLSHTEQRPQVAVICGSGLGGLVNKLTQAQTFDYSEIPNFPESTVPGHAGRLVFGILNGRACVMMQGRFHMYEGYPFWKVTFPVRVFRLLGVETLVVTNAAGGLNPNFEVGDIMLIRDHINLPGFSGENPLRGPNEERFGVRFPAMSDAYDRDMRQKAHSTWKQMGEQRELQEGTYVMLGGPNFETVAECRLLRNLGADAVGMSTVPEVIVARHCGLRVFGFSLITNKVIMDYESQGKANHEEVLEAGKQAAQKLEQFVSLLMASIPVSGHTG
As to the kind of experiment: biochemical. Format: biochemical, calf. How it is done: The compound of Example 8 is tested for enzyme inhibition activity.

Experiment [2] has as its system plasma inosine. Kind of experiment: plasma inosine in Lewis rats after intraperitoneal injection (HPLC). The class given is in vivo. Particulars: 30 mg twice per day, aqueous carrier with ten percent DMSO, vs vehicle controls. How it is done:
A pharmaceutical composition for intraperitoneal injection is prepared for testing the compound (IA). An intraperitoneal injection solution containing the compound (IA) is dissolved in an aqueous carrier that contains ten percent DMSO.
The compound (IA) is intraperitoneally injected into Lewis Rats via the test composition of Example 21 to provide 30 mg of the compound (IA), with an injection given twice per day. Controls are used, which receive only the vehicle. At specific times after administration, the animals are sacrificed and plasma samples are prepared. The plasma is extracted with cold 0.5 N HClO4 and neutralized with solid NH4 HCO3. After removal of perchlorate salts, the extract is subjected to HPLC on a reversed phase column (Spherisorb ODSI).
Compounds prepared as in Examples 10-20 are each made into a pharmaceutical formulation in accordance with the preparation of Example 21 and the resultant injectable solutions are tested in accordance with the procedure of Example 22.
A pharmaceutical composition for intraperitoneal injection is prepared for testing the compound (IC). An intraperitoneal injection solution is prepared containing the compound (IC) is dissolved in an aqueous carrier that contains ten percent DMSO. […]

For experiment [3], the system named is CCRF-CEM cells. Kind of experiment: potentiation of the toxicity of 2'-deoxyguanosine (d-Guo) in CCRF-CEM cells. Format: cell-based. Particulars: read-out: IC50, concentration of the compound required to reduce the increase in cell number between 0 and 72 hours to 50% of that of control cultures, with d-Guo at 5.62 μM, RPMI-1640 medium. The procedure: CCRF-CEM cells are grown in RPMI-1640 medium. To a suspension cultures of these cells, d-Guo at a fixed concentration (5.62 μM) and the compound at varied concentrations are added and the number of cells are determined in a Coulter counter 24, 48, and 72 hours thereafter.

The mark [4] stands for this setting: 1 mM phosphate, calf spleen enzyme, read-out: PNP activity (IC50) at 1 mM phosphate.
The mark [5] stands for this setting: read-out: PNP activity (IC50) at 50 mM phosphate, 50 mM phosphate, calf spleen enzyme.

Consider `Nc1nc2c(CC3C4CC5CC(C4)CC3C5)c[nH]c2c(=O)[nH]1` (stereo not shown) [Example 8, 2-amino-7-(2-adamantylmethyl)-3H,5H-pyrrolo[3,2-d]pyrimidin-4-one], for which the results for the pIC50 in experiment [1] (setting [4]) and in experiment [1] (setting [5]) were 7.05 and 5.60, respectively. Besides, the “increase in plasma inosine” value in experiment [2] is reported as “significant increase in plasma inosine”.
In the case of `Nc1nc2c(CC3CCCC3)c[nH]c2c(=O)[nH]1` [Example 41, 2-amino-7-(cyclopentylmethyl)-3H,5H-pyrrolo[3,2-d]-pyrimidin-4-one], the pIC50 is 7.54 in experiment [1] (setting [4]) and 5.74 in experiment [1] (setting [5]). Besides, the “increase in plasma inosine” value in experiment [2] was “significant increase in plasma inosine”.
For the compound `Nc1nc2c(CC3CCCCC3)c[nH]c2c(=O)[nH]1` [Example 56, 2-amino-7-(cyclohexylmethyl) -3H,5H-pyrrolo[3,2-d]-pyrimidin-4-one], the pIC50 in experiment [3] is 5.70.
As for `CC1CCCC(Cc2c[nH]c3c(=O)[nH]c(N)nc23)C1` (stereo not shown) [Example 59, 2-amino-7-(3-methylcyclohexylmethyl)-3H,5H-pyrrolo[3,2-d]pyrimidin-4-one], the pIC50 in experiment [1] (read-out: PNP activity (IC50) at 1 mM phosphate) was 7.60.
As for `Nc1nc2c(CC3CCCCCC3)c[nH]c2c(=O)[nH]1` [Example 70, 2-amino-7-(cycloheptylmethyl)-3H,5H-pyrrolo[3,2-d]pyrimidin-4-one], the pIC50 in experiment [1] (setting [4]) is 7.52; in experiment [1] (PNP activity (IC50) at 50 mM phosphate, 50 mM phosphate, calf spleen enzyme), 6.08.
